Test results taken from the supplement of paper PMC10627819.

Legend:
B. subtilis 168 [1] = test: fitness (endpoint OD595 vs no drug) (fraction); higher = more growth
Summary of the method: (§1)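 Fitness was defined as the optical density at the transition into stationary phase relative to the robust mean of no-drug control wells. Values were capped at 1. Cultures were started at OD595 0.01 in 384-well plates (30 µl, or 55 µl for S. pneumoniae) in TSB, LB Lennox or CY at 37 °C. OD595 was recorded every 30 min over 14 h, with the first reading subtracted as background.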

S. aureus DSM 20231 [2] = test: as above
Summary of the method: as §1

S. aureus Newman [3] = test: as above
Summary of the method: as §1

S. pneumoniae D39V [4] = test: as above
Summary of the method: as §1

B. subtilis 168 [5] = test: Bliss interaction score (quartile over a dose matrix) (fitness difference); higher = more antagonism (negative = synergy)
Summary of the method: (§2)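 The Bliss score is observed minus expected fitness under the product model, reported as quartiles over technical, biological and donor/recipient replicates. Fitness is the OD595 at entry into stationary phase divided by the plate's robust no-drug mean and capped at 1. Single-drug fitness was inferred from combination data.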

S. aureus DSM 20231 [6] = test: as above
Summary of the method: as §2

S. aureus Newman [7] = test: as above
Summary of the method: as §2

S. pneumoniae D39V [8] = test: as above
Summary of the method: as §2
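For Bliss interaction score (quartile over a dose matrix) in this document: first quartile when negative (synergy) and third quartile when positive (antagonism).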

COc1cccc2c1C(=O)c1c(O)c3c(c(O)c1C2=O)C[C@@](O)(C(=O)CO)C[C@@H]3O[C@H]1C[C@H](N)[C@H](O)[C@H](C)O1 [Doxorubicin] + Cc1onc(-c2ccccc2)c1C(=O)N[C@@H]1C(=O)N2[C@@H]1SC(C)(C)[C@@H]2C(=O)O [Oxacillin]
fitness
Details	first compound 0.25 µg/mL	first compound 0.5 µg/mL	first compound 0.625 µg/mL	first compound 1 µg/mL	first compound 1.25 µg/mL	first compound 2.5 µg/mL
B. subtilis 168 [1], partner 0.002 µg/mL	–	–	0.995	–	0.895	0.749
B. subtilis 168 [1], partner 0.004 µg/mL	–	–	0.932	–	0.89	0.675
B. subtilis 168 [1], partner 0.008 µg/mL	–	–	0.881	–	0.871	0.512
S. aureus DSM 20231 [2], partner 0.0156 µg/mL	–	–	0.738	–	0.756	0.599
S. aureus DSM 20231 [2], partner 0.0312 µg/mL	–	–	0.604	–	0.585	0.532
S. aureus DSM 20231 [2], partner 0.0625 µg/mL	–	–	0.479	–	0.481	0.466
S. aureus Newman [3], partner 0.0156 µg/mL	–	–	0.705	–	0.671	0.671
S. aureus Newman [3], partner 0.0312 µg/mL	–	–	0.637	–	0.633	0.645
S. aureus Newman [3], partner 0.0625 µg/mL	–	–	0.582	–	0.583	0.569
S. pneumoniae D39V [4], partner 0.005 µg/mL	≥ 1	≥ 1	–	0.997	–	–
S. pneumoniae D39V [4], partner 0.01 µg/mL	0.941	0.973	–	0.924	–	–
S. pneumoniae D39V [4], partner 0.02 µg/mL	0.889	0.897	–	0.891	–	–
S. pneumoniae D39V [4], partner 0.04 µg/mL	0.252	0.337	–	0.323	–	–

fitness, B. subtilis 168 [1], one replicate
Details	partner 0.0078 µg/mL	partner 0.0155 µg/mL	partner 0.031 µg/mL	partner 0.075 µg/mL	partner 0.15 µg/mL	partner 0.3 µg/mL
first compound 0.625 µg/mL	≥ 1	≥ 1	0.943	0.468	0.0267	0.0431
first compound 1.25 µg/mL	0.965	0.934	0.857	0.496	0.0281	0.0304
first compound 2.5 µg/mL	0.652	0.666	0.477	0.0449	0.0184	0.0211

Details	Bliss interaction score
B. subtilis 168 [5]	0.0758
S. aureus DSM 20231 [6]	-0.0629
S. aureus Newman [7]	0.0538
S. pneumoniae D39V [8]	0.0665

C[C@@H]1O[C@@H]1P(=O)(O)O [Fosfomycin] + CN1C2=CC=CC=C2N=C3C1=CC=CC3=O [Pyocyanin]
fitness
Details	partner 0.325 µg/mL	partner 0.65 µg/mL	partner 1.25 µg/mL	partner 1.3 µg/mL	partner 2.5 µg/mL	partner 5 µg/mL
B. subtilis 168 [1], first compound 1.562 µg/mL	–	–	0.671	–	0.632	0.536
B. subtilis 168 [1], first compound 3.124 µg/mL	–	–	0.59	–	0.588	0.471
B. subtilis 168 [1], first compound 6.248 µg/mL	–	–	0.465	–	0.412	0.376
S. aureus DSM 20231 [2], first compound 0.781 µg/mL	–	–	0.673	–	0.707	0.541
S. aureus DSM 20231 [2], first compound 1.562 µg/mL	–	–	0.653	–	0.629	0.472
S. aureus DSM 20231 [2], first compound 3.124 µg/mL	–	–	0.508	–	0.509	0.39
S. aureus Newman [3], first compound 0.781 µg/mL	–	–	0.547	–	0.548	0.424
S. aureus Newman [3], first compound 1.562 µg/mL	–	–	0.439	–	0.465	0.38
S. aureus Newman [3], first compound 3.124 µg/mL	–	–	0.0851	–	0.142	0.24
S. pneumoniae D39V [4], first compound 1.25 µg/mL	0.992	≥ 1	–	0.774	–	–
S. pneumoniae D39V [4], first compound 2.5 µg/mL	0.971	0.923	–	0.791	–	–
S. pneumoniae D39V [4], first compound 5 µg/mL	0.837	0.899	–	0.745	–	–

Details	Bliss interaction score
B. subtilis 168 [5]	0.072
S. aureus DSM 20231 [6]	0.0453
S. aureus Newman [7]	0.105
S. pneumoniae D39V [8]	0.0461
